A short description of data set [1]: Heat accelerated stability assay of polypeptide solutions (40° C., pH about 7.4), reversed phase chromatography. Format: physicochemical. The note with it: 40° C.; for Concentration change on 7 d / Concentration change on 26 d: pH about 7.4, 1 mg/mL; for Concentration change on 7 d / Purity change on 7 d: Day 7; for Concentration change on 26 d / Purity change on 26 d: Day 26; for Purity change on 7 d / Purity change on 26 d: reversed phase chromatography 214 nm; for Purity change on 7 d: purity on 7 d − purity on 0 d; for Purity change on 26 d: purity on 26 d − purity on 0 d. The procedure: A stability test chamber (BINDER GmbH), a 0.01 mg-readability balance (METTLER TOLEDO), a pH meter (METTLER TOLEDO), a biosafety cabinet (ESCO), T2G-II small-sized motor-driven capping machine (Changsha zhongya pharmaceutical equipment co. LTD), a high-speed refrigerated centrifuge (Eppendorf), a sterilizer cabinet (Shinva Medical), Agilent 1260 high-performance liquid chromatographer, and Sepax Bio-C18 4.6*250 mm 3 μm 200 Å reversed phase column were used.
Reagents and consumables included: ultrapure water (18.2 MΩ, self-made), acetonitrile (HPLC grade), trifluoroacetic acid (HPLC grade), sodium dihydrogen phosphate (pharmaceutical grade, Hunan Jiudian Hongyang Pharmaceutical Co., Ltd), hydrochloric acid (pharmaceutical grade, Hunan Er-Kang Pharmaceutical Co., Ltd), sodium hydroxide (Analytical Reagent grade, Hushi®, Sinopharm Chemical Reagent Co., Ltd), vials, rubber stoppers, disposable syringes, and sterile filters.
The lyophilized powder (1 mg/mL) of the polypeptide derivative prepared in accordance with the method of Example 1 was mixed with sodium dihydrogen phosphate (1.42 mg/mL) and dissolved in ultrapure water in the indicated mass-volume ratios. After adjusting pH to about 7.4 with hydrochloric acid/sodium hydroxide, the solution was filtered into a sterilized vial in a clean bench using a 0.22 μm sterile filter. The vial was then capped and placed into the stability test chamber at 40° C. Detections were made on Days 7 (7d) and 26 (26d), and during the assay, changes in the characteristics and properties of the polypeptide were observed and recorded. The sample was then centrifuged for 3 min at 10,000 rpm at 4° C., and the supernatant was transferred to a liquid phase sample vial for detecting the concentration and purity of the polypeptides using liquid phase chromatography described as below, wherein the concentration of the polypeptide=peak area/injection volume/extinction coefficient/60×flow rate, and the purity of the polypeptide=target peak area/total peak area×100%.
Conditions of the reversed phase chromatography Flow rate: 1.0 ml/min; Autosampler temperature: 15° C.; Column temperature: 25° C.; Detection wavelengths: 280 nm and 214 nm; Mobile phase A: 100% H2O+0.05% TFA; Mobile phase B: 100% ACN; and Gradient of elution listed in Table 6: […]

Data set [2] has as its target T1, calcitonin receptor (hCTR) (Homo sapiens, UniProt P30988).
T1 construct: host or cells: CHO-K1/CALCR/Ga15 cells, further stably transfected with a CRE-luciferase plasmid
T1 sequence (P30988 25-474): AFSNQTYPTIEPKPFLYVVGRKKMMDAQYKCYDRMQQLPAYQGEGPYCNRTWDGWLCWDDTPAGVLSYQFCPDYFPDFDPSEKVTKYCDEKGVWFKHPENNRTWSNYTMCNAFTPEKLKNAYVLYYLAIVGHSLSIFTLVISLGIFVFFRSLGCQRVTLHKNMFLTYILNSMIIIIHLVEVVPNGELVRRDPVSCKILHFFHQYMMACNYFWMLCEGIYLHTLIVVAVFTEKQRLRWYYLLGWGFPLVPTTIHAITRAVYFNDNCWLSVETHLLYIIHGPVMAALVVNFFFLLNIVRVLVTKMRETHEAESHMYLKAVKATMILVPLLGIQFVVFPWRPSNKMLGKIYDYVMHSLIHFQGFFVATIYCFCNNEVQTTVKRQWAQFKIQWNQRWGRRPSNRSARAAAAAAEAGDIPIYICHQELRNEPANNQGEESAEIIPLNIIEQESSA
As to the kind of experiment: Calcitonin receptor agonism, CRE-luciferase assay in stably transfected CHO-K1/CALCR/Ga15 cells. The format is cell-based. The following applies: incubation of 24 hours; Table 4; read-out: EC50, activity against the calcitonin receptor in cells.
Method: Using the standard protocol, CHO-K1/CALCR/Ga15 cells (purchased from GenScript, with the calcitonin receptor constructed already) were transfected with a plasmid containing a luciferase expression cassette driven by multiple copies of cAMP response elements (CREs). The cells were cultured in an F12 medium containing 200 ug/mL Zeocin, 2 ug/mL puromycin, and 100 ug/mL hygromycin to afford a stably transfected calcitonin receptor/CRE-luc cell line.
(§1) To each well of a white 96-well plate was added 50 μL of the tested sample solution at a respective concentration.
The stably transfected calcitonin receptor/CRE-luc CHO cells were resuspended in the growth medium at a certain density, and 50 μL of the cell suspension was added at a density of about 20,000 cells per well to the white 96-well plate containing the tested sample solution. After incubation of 24 hours at 37° C. and 5% CO2, 100 μL of a Luciferase substrate was added to each well, incubated for 3 minutes, and finally was tested for luminescence on SpectraMax L (Molecular Devices) with the software SoftMax Pro 7.0.3 GxP. A standard curve was plotted using the fluorescent intensities for calculation of EC50.

For the next data set, the target named is T2, amylin receptor (hAMY3R) (Homo sapiens, UniProt O60896+P30988).
T2 construct: host or cells: CHO-K1/Ga15/AMY3 cells, further stably transfected with a CRE-luciferase plasmid
T2 sequence (P30988 25-474): T1 sequence (P30988 25-474)
T2 sequence (O60896 24-148): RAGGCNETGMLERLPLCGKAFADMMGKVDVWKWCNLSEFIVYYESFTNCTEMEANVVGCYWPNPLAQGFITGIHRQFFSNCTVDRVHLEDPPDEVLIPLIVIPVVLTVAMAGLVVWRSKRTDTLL
As to the kind of experiment: Amylin receptor agonism testing, CRE-luciferase assay in stably transfected CHO-K1/Ga15/AMY3 cells. The following applies: incubation of 24 hours; Table 3; read-out: EC50, activity against the amylin receptor in cells. Format: cell-based.

“And” between values parts separate entries of the source, which are not always exact repeats. Identical values can stand only once. Numbered stars: 1 amine (or outer) side, 2 acyl side, 3 side chain; on linkers, the order of the positions; unused ones are H or OH. Peptide text beside a SMILES is read from it. * marks the point of attachment. C22 diacid = O=C(O)CCCCCCCCCCCCCCCCCCCCC(=O)*; C20 diacid = O=C(O)CCCCCCCCCCCCCCCCCCC(=O)*; C18 diacid = O=C(O)CCCCCCCCCCCCCCCCC(=O)*; γGlu = O=C(O)[C@H](CCC(=O)[*:2])N[*:1]; AEEA = NCCOCCOCC(=O)O

From the text for amylin receptor (hAMY3R): The objective of this assay is to test the potency of the polypeptide derivatives in the present application on amylin and calcitonin receptors in vitro using a luciferase assay.
Using the standard protocol for construction of an amylin receptor/CRE-luc cell line, CHO-K1/Ga15/AMY3 cells (purchased from GenScript, with the calcitonin receptor and the receptor activity modifying peptide (RAMP) constructed already) were transfected with a plasmid containing a luciferase expression cassette driven by multiple copies of cAMP response elements (CREs). The cells were cultured in an F12 medium containing 200 ug/mL Zeocin, 2 ug/mL puromycin, 100 ug/mL hygromycin, and 400 ug/mL G418 to afford a stably transfected amylin receptor/CRE-luc cell line.
as §1
The stably transfected amylin receptor/CRE-luc CHO cells were resuspended in the growth medium at a certain density, and 50 μL of the cell suspension was added at a density of about 20,000 cells per well to the white 96-well plate containing the tested sample solution. After incubation of 24 hours at 37° C. and 5% CO2, 100 μL of a Luciferase substrate was added to each well, incubated for 3 minutes, and finally was tested for luminescence on SpectraMax L (Molecular Devices) with the software SoftMax Pro 7.0.3 GxP. A standard curve was plotted using the fluorescent intensities for calculation of EC50.

One may read the EC50 as the concentration that produces a half-maximal response. As for `CC(C)C[C@H](NC(=O)[C@H](CCCNC(=N)N)NC(=O)CNC(=O)[C@H](CC(C)C)NC(=O)[C@@H](NC(=O)[C@H](C)NC(=O)[C@@H](NC(=O)[C@H](CO)NC(=O)[C@H](CC(C)C)NC(=O)[C@H](CCC(N)=O)NC(=O)[C@H](CO)NC(=O)[C@H](C)NC(=O)CC[C@H](NC(=O)CCCCCCCCCCCCCCCCCCCCC(=O)O)C(=O)O)[C@@H](C)O)C(C)C)C(=O)N[C@@H](CO)C(=O)N[C@@H](CC(=O)O)C(=O)N[C@@H](CCC(=O)O)C(=O)N[C@@H](CC(C)C)C(=O)N[C@@H](Cc1c[nH]cn1)C(=O)N[C@@H](CCCNC(=N)N)C(=O)N[C@@H](CC(C)C)C(=O)N[C@@H](CCC(N)=O)C(=O)N[C@@H](CC(=O)O)C(=O)N[C@@H](Cc1ccc(O)cc1)C(=O)N1CCC[C@H]1C(=O)N[C@@H](CCCNC(=N)N)C(=O)N[C@H](C(=O)N[C@@H](CC(=O)O)C(=O)N[C@H](C(=O)NCC(=O)N[C@@H](CO)C(=O)NCC(=O)N[C@@H](CO)C(=O)N1CCC[C@H]1C(N)=O)C(C)C)[C@@H](C)O` [M7] ({C22 diacid-γGlu}-ASQLSTAVLGRLSDELHRLQDYPRTDVGSGSP-NH2), in data set [1], the “Concentration change on 7 d” value is “No change (concentration change of less than 1% (denoted as “no change”))”, the “Concentration change on 26 d” value is “No change (concentration change of less than 1% (denoted as “no change”))”, the “Purity change on 7 d” value was “No change” and the “Purity change on 26 d” value is reported as “nearly no noticeable change in purity”. For the same molecule, in data set [2], the EC50 is 0.194 nM.
Turning to `CC(C)C[C@H](NC(=O)[C@H](CCCNC(=N)N)NC(=O)CNC(=O)[C@H](CC(C)C)NC(=O)[C@@H](NC(=O)[C@H](C)NC(=O)[C@@H](NC(=O)[C@H](CO)NC(=O)[C@H](CC(C)C)NC(=O)[C@H](CCC(N)=O)NC(=O)[C@H](CO)NC(=O)[C@H](C)NC(=O)[C@H](CCC(=O)O)NC(=O)CCCCCCCCCCCCCCCCCCC(=O)O)[C@@H](C)O)C(C)C)C(=O)N[C@@H](CO)C(=O)N[C@@H](CC(=O)O)C(=O)N[C@@H](CCC(=O)O)C(=O)N[C@@H](CC(C)C)C(=O)N[C@@H](Cc1c[nH]cn1)C(=O)N[C@@H](CCCNC(=N)N)C(=O)N[C@@H](CC(C)C)C(=O)N[C@@H](CCC(N)=O)C(=O)N[C@@H](CC(=O)O)C(=O)N[C@@H](Cc1ccc(O)cc1)C(=O)N1CCC[C@H]1C(=O)N[C@@H](CCCNC(=N)N)C(=O)N[C@H](C(=O)N[C@@H](CC(=O)O)C(=O)N[C@H](C(=O)NCC(=O)N[C@@H](CO)C(=O)NCC(=O)N[C@@H](CO)C(=O)N1CCC[C@H]1C(N)=O)C(C)C)[C@@H](C)O` [M10] ({C20 diacid}-EASQLSTAVLGRLSDELHRLQDYPRTDVGSGSP-NH2), in data set [1], the “Concentration change on 7 d” value is −2.290%, the “Concentration change on 26 d” value is −10.562%, the “Purity change on 7 d” value was −1.66% and the “Purity change on 26 d” value was −5.98%.
`CC(C)C[C@H](NC(=O)[C@H](CCCNC(=N)N)NC(=O)CNC(=O)[C@H](CC(C)C)NC(=O)[C@@H](NC(=O)[C@H](C)NC(=O)[C@@H](NC(=O)[C@H](CO)NC(=O)[C@H](CC(C)C)NC(=O)[C@H](CCC(N)=O)NC(=O)[C@H](CO)NC(=O)[C@H](C)NC(=O)COCCOCCNC(=O)COCCOCCNC(=O)COCCOCCNC(=O)COCCOCCNC(=O)COCCOCCNC(=O)COCCOCCNC(=O)COCCOCCNC(=O)COCCOCCNC(=O)CC[C@H](NC(=O)CCCCCCCCCCCCCCCCCCC(=O)O)C(=O)O)[C@@H](C)O)C(C)C)C(=O)N[C@@H](CO)C(=O)N[C@@H](CC(=O)O)C(=O)N[C@@H](CCC(=O)O)C(=O)N[C@@H](CC(C)C)C(=O)N[C@@H](Cc1c[nH]cn1)C(=O)N[C@@H](CCCNC(=N)N)C(=O)N[C@@H](CC(C)C)C(=O)N[C@@H](CCC(N)=O)C(=O)N[C@@H](CC(=O)O)C(=O)N[C@@H](Cc1ccc(O)cc1)C(=O)N1CCC[C@H]1C(=O)N[C@@H](CCCNC(=N)N)C(=O)N[C@H](C(=O)N[C@@H](CC(=O)O)C(=O)N[C@H](C(=O)NCC(=O)N[C@@H](CO)C(=O)NCC(=O)N[C@@H](CO)C(=O)N1CCC[C@H]1C(N)=O)C(C)C)[C@@H](C)O` [M21] ({C20 diacid-γGlu-AEEA-AEEA-AEEA-AEEA-AEEA-AEEA-AEEA-AEEA}-ASQLSTAVLGRLSDELHRLQDYPRTDVGSGSP-NH2): in data set [1], the “Concentration change on 7 d” value is −1.388%, the “Concentration change on 26 d” value is reported as −4.522%, the “Purity change on 7 d” value was −1.66% and the “Purity change on 26 d” value is reported as −2.01%. Also, the EC50 on amylin receptor (hAMY3R) turned out to be 0.044 nM.
Regarding `CC(C)C[C@H](NC(=O)[C@H](CCCNC(=N)N)NC(=O)CNC(=O)[C@H](CC(C)C)NC(=O)[C@@H](NC(=O)[C@H](C)NC(=O)[C@@H](NC(=O)[C@H](CO)NC(=O)[C@H](CC(C)C)NC(=O)[C@H](CCC(N)=O)NC(=O)[C@H](CO)NC(=O)[C@H](C)NC(=O)COCCOCCNC(=O)COCCOCCNC(=O)CC[C@H](NC(=O)CCCCCCCCCCCCCCCCC(=O)O)C(=O)O)[C@@H](C)O)C(C)C)C(=O)N[C@@H](CO)C(=O)N[C@@H](CC(=O)O)C(=O)N[C@@H](CCC(=O)O)C(=O)N[C@@H](CC(C)C)C(=O)N[C@@H](Cc1c[nH]cn1)C(=O)N[C@@H](CCCNC(=N)N)C(=O)N[C@@H](CC(C)C)C(=O)N[C@@H](CCC(N)=O)C(=O)N[C@@H](CC(=O)O)C(=O)N[C@@H](Cc1ccc(O)cc1)C(=O)N1CCC[C@H]1C(=O)N[C@@H](CCCNC(=N)N)C(=O)N[C@H](C(=O)N[C@@H](CC(=O)O)C(=O)N[C@H](C(=O)NCC(=O)N[C@@H](CO)C(=O)NCC(=O)N[C@@H](CO)C(=O)N1CCC[C@H]1C(N)=O)C(C)C)[C@@H](C)O` [M22] ({C18 diacid-γGlu-AEEA-AEEA}-ASQLSTAVLGRLSDELHRLQDYPRTDVGSGSP-NH2), in data set [1], the “Concentration change on 26 d” value was −5.493%, the “Purity change on 7 d” value was found to be 2.59% and the “Purity change on 26 d” value was −2.19%. Moreover, at amylin receptor (hAMY3R), the EC50 came out at 0.015 nM.
On to “D2: SEQ ID NO. 5 CSNLSTCVLGKLSQELHKLQTYPRTNTGSGTP-NH2, no modification, no fatty acid [reference compound]”, for which the “Concentration change on 7 d” value in data set [1] is −40% and −40.064%.
Regarding “H-ASQLSTAVLGRLSQELHRLQDYPRTDVGSGSP-NH2 [M5]”, at amylin receptor (hAMY3R), the EC50 was 0.033 nM.
Turning to “M19: SEQ ID NO. 4 ASQLSTAVLGRLSDELHRLQDYPRTDVGSGSP-NH2, N terminus, C20 diacid + γGlu + 4 AEEAs ({C20 diacid-γGlu-AEEA-AEEA-AEEA-AEEA}-ASQLSTAVLGRLSDELHRLQDYPRTDVGSGSP-NH2)”, in data set [1], the “Concentration change on 26 d” value was −1.589%, the “Purity change on 7 d” value is recorded as “No change” and the “Purity change on 26 d” value is reported as “nearly no noticeable change in purity”.
For “M20: SEQ ID NO. 4 ASQLSTAVLGRLSDELHRLQDYPRTDVGSGSP-NH2, N terminus, C20 diacid + γGlu + 6 AEEAs ({C20 diacid-γGlu-AEEA-AEEA-AEEA-AEEA-AEEA-AEEA}-ASQLSTAVLGRLSDELHRLQDYPRTDVGSGSP-NH2)”, in data set [1], the “Concentration change on 7 d” value is listed as “No change (concentration change of less than 1% (denoted as “no change”))”, the “Concentration change on 26 d” value is listed as −3.662%, the “Purity change on 7 d” value was “No change” and the “Purity change on 26 d” value is reported as −1.59%.

The record behind these values is patent US20260265305A1, “POLYPEPTIDE DERIVATIVE FOR ORAL DELIVERY” (Hangzhou Sciwind Biosciences Co., Ltd., priority 2023, published 2026).
